One may read the Ki as the dissociation constant of the complex between target and ligand, obtained from inhibition or displacement.

One assay has as its target α5-GABAA receptor (α5, β3, γ2 subunits) (Homo sapiens (Human), UniProt P18507+P31644). Briefly: Whole cell patch clamp, inverse agonist efficacy in HEK293 cells expressing α5-GABAA receptor. The assay is classed as cell-based. The conditions noted are these: HEK293, drug 100 nM, GABA 0.05 μM, −60 mV; read-out: Compound inverse agonist efficacy %. The source says: The inventors used electrophysiological methods to determine the inverse agonist efficacy of the drugs to be tested on the α5-GABAA receptor. The detailed methods are as follows:
Different subunits of the GABAA receptor were co-expressed in the HEK293 cell line to construct a fully functional GABAA receptor. The α, β, and γ subunits are essential to form a complete functional GABAA receptor. In this example, the present disclosure had established the following cell model: α5 subunit (see GenBank Accession No.: NM_000810.3 for protein sequences), β3 subunit (see GenBank Accession No.: NM_000814.5 for protein sequences), and γ2 subunit (see GenBank Accession No.: NM_000816.3 for protein sequences) were co-expressed in the HEK293 cell line, followed by screening the monoclonal stably transfected cell line. This cell line expressed a fully functional α5-GABAA receptor.
The monoclonal stably transfected HEK293 cell line expressing α5-GABAA receptor were cultured in 10 cm culture dishes and passaged when the cells grew to 80% to 90% confluent. During passaging, the culture medium was aspirated first, then 3 mL of DPBS phosphate buffer salt (Gibco™) was added to the culture dishes, and the culture dishes were shaken slightly, and DPBS was aspirated. 1 mL of trypsin (TrypLE Express, Gibco™) was added thereto, and the cells were digested at 37° C. for 1-2 minutes. Then 3 mL of complete medium (DMEM+10% FBS (Gibco™)) was added and the cells at the bottom of the culture dishes were dispersed. The cell suspension was transferred to a 15 mL centrifugal tube (Corning) and then centrifuged at 200 g for 3 minutes. The supernatant was discarded, 4 mL of complete medium was added, and the cells were gently blown and resuspended for use. If cell passaging was performed, the cell suspension was diluted at a ratio of 1:5 or 1:10. If cells for electrophysiological detection were prepared, the cell suspension was diluted in a ratio of 1:12, then added into a 24-well dish (Corning™) in which glass slides were placed and pretreated with Poly-D-Lysine, and the experiment was carried out after the cells adhered to the wall. The cells used for electrophysiology was cultured no more than 48 hours.
Drug concentration setting: The final drug concentration used in drug screening was 100 nM, and the GABA concentration was 0.05 μM. The whole cell patch clamp technique was used in electrophysiological assays, which could refer to the literature (I. Lecker, Y. Yin, D. S. Wang and B. A. Orser, British Journal of Anaesthesia, 2013, 110 (Si), i73-i81). The compositions of the extracellular solution for electrophysiology assay were as follows: 150 mM NaCl, 5 mM KCl, 2.5 mM CaCl2, 1 mM MgCl2, 10 mM HEPES, and 10 mM glucose (pH 7.4); the formulation of the electrode internal fluid for electrophysiology use was as follows: 140 mM CsCl, 11 mM EGTA, 10 mM HEPES, 2 mM CaCl2, 1 mM MgCl2, 4 mM MgATP, and 2 mM TEA (pH 7.3). The signal acquisition used an EPC-10 amplifier and the PatchMaster software (HEKA) or Axon700B amplifier and Clampex software (AXON). The recording electrode was pulled from borosilicate glass, and the electrode resistance was 4 to 6 MQ. The ALA-VC-8PG™ system was used for drug application. Single cell that grew independently was selected for recording. During recording, the cell membrane potential was clamped at −60 mV. During experiment, an extracellular solution was applied outside the cells for about 20 seconds. When the baseline reached to a stable state, the extracellular solution was switched to the GABA solution to induce an inward current. After about 20 to 40 seconds until the current was stable, the solution was switched to a corresponding drug solution to detect the effect of the drug. At last, the solution was switched to the extracellular solution, and the experiment was terminated when the baseline returned to the level before drug application. […]
For orientation: Patch clamp records ionic current or voltage across a cell membrane.
Regarding `O=C1CN(c2ccc(OCc3c(Cl)nnn3-c3ccc(F)cc3)nn2)CCN1` [Example 189, 4-(6-((4-Chloro-1-(4-fluorophenyl)-1H-1,2,3-triazol-5-yl)methoxy)pyridazin-3-yl)piperazin-2-one], the inhibition at 0.1 µM worked out at 42.1%.

Take `Cc1nnn(-c2ccc(C(F)F)cc2)c1COc1ccc(N2CCN(CCN)C(=O)C2)nn1` [Example 67, 1-(2-Aminoethyl)-4-(6-((1-(4-(difluoromethyl)phenyl)-4-methyl-1H-1,2,3-triazol-5-yl)methoxy)pyridazin-3-yl)piperazin-2-one]: the inhibition at 0.1 µM was found to be 50.1%.

The next assay has as its target human α5β3γ2 receptors (α5-GABAA receptor) (Homo sapiens (Human), UniProt P18507+P31644). The experiment in a line: 3H-flunitrazepam competition binding, human α5β3γ2 GABAA receptor. The note with it: HEK293 cell membranes, 1 nM 3H-flunitrazepam; read-out: α5-GABAAR Ki. In outline:
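Radioligand displacement of 1 nM 3H-flunitrazepam from membranes of HEK293 lines stably expressing the human subtypes, 1 h at room temperature, compound in 8-point 4-fold series. Bound label on GF/C filters counted by scintillation; Ki derived from fitted IC50, with flumazenil as low control.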
`O=C1CN(c2ccc(OCc3c(Cl)nnn3-c3ccc(F)cc3)nn2)CCN1` [Example 189, 4-(6-((4-Chloro-1-(4-fluorophenyl)-1H-1,2,3-triazol-5-yl)methoxy)pyridazin-3-yl)piperazin-2-one]: the Ki was determined as 9.44 nM.

For the compound `COc1cc(OCc2c(C)nnn2-c2ccc(C(F)F)cc2)nnc1N1CCNC(=O)C1` [Example 135, 4-(6-((1-(4-(Difluoromethyl)phenyl)-4-methyl-1H-1,2,3-triazol-5-yl)methoxy)-4-methoxypyridazin-3-yl)piperazin-2-one], the Ki turned out to be 1.05 nM.

Regarding `Cc1nnn(-c2ccc(C(F)F)cc2)c1COc1ccc(N2CCN3C(=O)NC(=O)[C@@H]3C2)nn1` [Example 118, (S)-7-(6-((1-(4-(Difluoromethyl)phenyl)-4-methyl-1H-1,2,3-triazol-5-yl)methoxy)pyridazin-3-yl)tetrahydroimidazo[1,5-a]pyrazine-1,3(2H,5H)-dione], the inhibition constant (Ki) worked out at 1.66 nM.

As to `Cc1nnn(-c2ccc(C(F)F)cc2)c1COc1ccc(N2CCN3CC(=O)NC(=O)[C@@H]3C2)nn1` [Example 117, (S)-8-(6-((1-(4-(Difluoromethyl)phenyl)-4-methyl-1H-1,2,3-triazol-5-yl)methoxy)pyridazin-3-yl)hexahydro-1H-pyrazino[1,2-a]pyrazin-1,3-(2H)-dione], the Ki was 4.87 nM.

As to `Cc1nnn(-c2ccc(C(F)F)cc2)c1COc1ccc(N2CCNCC2=O)nn1` [Example 71, 1-(6-((1-(4-(Difluoromethyl)phenyl)-4-methyl-1H-1,2,3-triazol-5-yl)methoxy)pyridazin-3-yl)piperazin-one], the Ki came out at 8.86 nM.

As for `COCCNC(=O)C1CN(c2ccc(OCc3c(C)nnn3-c3ccc(C(F)F)cc3)nn2)C1` [Example 49, 1-(6-((1-(4-(Difluoromethyl)phenyl)-4-methyl-1H-1,2,3-triazol-5-yl)methoxy)pyridazin-3-yl)-N-(2-methoxyethyl)azetidine-3-carboxamide], the Ki is 6.5 nM.

As to `O=C1NCCN2CCN(c3ccc(OCc4c(C(F)F)nnn4-c4ccc(C(F)F)cc4)nn3)C[C@@H]12` [Example 184, (S)-8-(6-((4-(Difluoromethyl)-1-(4-(difluoromethyl)phenyl)-1H-1,2,3-triazol-5-yl)methoxy)pyridazin-3-yl)hexahydro-2H-pyrazino[1,2-a]pyrazin-1(6H)-one], the Ki is 2.53 nM.

As to `Cc1nnn(-c2ccc(C#N)cc2)c1COc1ccc(N2CCNC(=O)C2)nn1` [Example 75, 4-(6-((1-(4-Cyanophenyl)-4-methyl-1H-1,2,3-triazol-5-yl)methoxy)pyridazin-3-yl)piperazin-2-one], the Ki is 40.2 nM.

In the case of `Cc1nnn(-c2ccc(C(F)F)cc2)c1COc1ccc(N2CC(C(=O)Nc3cnn(C(F)F)c3)C2)nn1` [Example 153, N-(1-(Difluoromethyl)-1H-pyrazol-4-yl)-1-(6-((1-(4-(difluoromethyl)phenyl)-4-methyl-1H-1,2,3-triazol-5-yl)methoxy)pyridazin-3-yl)azetidine-3-carboxamide], the Ki turned out to be 1.89 nM.

Turning to `Cc1cc(N2CCNC(=O)C2)nnc1OCc1c(C)nnn1-c1ccc(C(F)F)cc1` [Example 81, 4-(6-((1-(4-(Difluoromethyl)phenyl)-4-methyl-1H-1,2,3-triazol-5-yl)methoxy)-5-methylpyridazin-3-yl)piperazin-2-one], the Ki was found to be 0.56 nM.

As for `Cc1nnn(-c2ccc(C(F)F)cc2)c1COc1ccc(N2CCN3c4ncccc4NC(=O)[C@@H]3C2)nn1` [Example 194, (S)-8-(6-((1-(4-(Difluoromethyl)phenyl)-4-methyl-1H-1,2,3-triazol-5-yl)methoxy)pyridazin-3-yl)-7,8,9,10-tetrahydro-5H-pyrazino[1,2-a]pyrido[3,2-e]pyrazin-6(6aH)-one], the Ki came out at 0.8 nM.

`Cc1nnn(-c2ccc(C(F)F)cc2)c1COc1ccc(N2CCN3CCCNC(=O)[C@@H]3C2)nn1` [Example 120, (S)-2-(6-((1-(4-(Difluoromethyl)phenyl)-4-methyl-1H-1,2,3-triazol-5-yl)methoxy)pyridazin-3-yl)octahydropyrazino[1,2-a][1,4]diaza-10(2H)-one]: the Ki came to 27.2 nM.

For `Cc1nnn(-c2ccc(C(F)F)cc2)c1COc1ccc(N2CCN[C@H](C#N)C2)nn1` [Example 33, (S)-4-(6-((1-(4-(Difluoromethyl)phenyl)-4-methyl-1H-1,2,3-triazol-5-yl)methoxy)pyridazin-3-yl)piperazine-2-carbonitrile], the Ki was 3.31 nM.

Take `Cc1nnn(-c2ccc(C(F)F)cc2)c1COc1ccc(N2CCN3CC(c4cnn(C)c4)NC(=O)[C@@H]3C2)nn1` (single isomer, unassigned) [Example 211]: the Ki was found to be 2.02 nM.

Take `Cc1nnn(-c2ccc(C(F)F)cc2)c1COc1ccc(N2C(=O)NC(C)(C)C2=O)nn1` [Example 25, 3-(6-((1-(4-(Difluoromethyl)phenyl)-4-methyl-1H-1,2,3-triazol-5-yl)methoxy)pyridazin-3-yl)-5,5-dimethylimidazolidine-2,4-dione]: the Ki came to 24.4 nM.

On to `Cc1nnn(-c2ccc(C(F)F)cc2)c1COc1ccc(N2CCOC3(CCS(=O)(=O)C3)C2)nn1` (stereo not shown) [Example 105, 9-(6-((1-(4-(Difluoromethyl)phenyl)-4-methyl-1H-1,2,3-triazol-5-yl)methoxy)pyridazin-3-yl)-6-oxa-2-thia-9-azaspiro[4.5]decane 2,2-dioxide], for which the Ki amounted to 1.24 nM.

Regarding `COCc1ccc(-n2nnc(C)c2COc2ccc(N3CCN4CCNC(=O)[C@@H]4C3)nn2)cc1` [Example 161, (S)-8-(6-((1-(4-(Methoxymethyl)phenyl)-4-methyl-1H-1,2,3-triazol-5-yl)methoxy)pyridazin-3-yl)hexahydro-2H-pyrazino[1,2-a]pyrazin-1(6H)-one], the inhibition constant Ki was determined as 13.8 nM.

`Cc1nnn(-c2ccc(C(F)F)cc2)c1COc1ccc(N2CCN(Cc3ncccn3)C(=O)C2)nn1` [Example 93, 4-(6-((1-(4-(Difluoromethyl)phenyl)-4-methyl-1H-1,2,3-triazol-5-yl)methoxy)pyridazin-3-yl)-1-(pyrimidin-2-ylmethyl)piperazin-2-one]: the Ki was determined as 3.14 nM.

For `Cc1cc(OCc2c(C)nnn2-c2ccc(C(F)F)cc2)nnc1N1CCNC(=O)C1` [Example 82, 4-(6-((1-(4-(Difluoromethyl)phenyl)-4-methyl-1H-1,2,3-triazol-5-yl)methoxy)-4-methylpyridazin-3-yl)piperazin-2-one], the Ki is 0.63 nM.

As for `Cc1nnn(-c2ccc(C(F)F)cc2)c1COc1ccc(N2CCN[C@H](C(=O)N(C)C)C2)nn1` [Example 31, (S)-4-(6-((1-(4-(Difluoromethyl)phenyl)-4-methyl-1H-1,2,3-triazol-5-yl)methoxy)pyridazin-3-yl)-N,N-dimethylpiperazine-2-carboxamide], the Ki stood at 7.45 nM.
